From PMC10412585 (Nature Communications, 2023)
“Also recorded” adds a separate entry of the source.

Legend:
NKG2A+/NKG2C- NK cells = assay: NK cell activation assay with peptide-pulsed K562/HLA-E cells, NKG2A+/NKG2C- NK cells; assay type: cell-based, human; settings: K562/HLA-E target cells, 300 µM peptide ([…] µM BFAR263-271), E:T 2:1, 6 h; degranulation (CD107a), IFN-γ, TNF, CCL3; flow cytometry
Experimental: (§1) We hypothesized that our predicted proteome-derived peptides could affect NK cell activation through interactions with CD94/NKG2A and CD94/NKG2C. To investigate, we performed cell-based activation assays on primary NK cells (Fig. 4A). NK cells were co-incubated with peptide-pulsed HLA-E-expressing K562 cells, as described previously. The parental K562 human myelogenous leukemia cell line is a typical target to measure NK cell cytotoxicity and activation, allowing for assessment of both NKG2A-mediated inhibition and NKG2C-mediated activation. […] NKG2A^-/NKG2C^- NK cells served as internal control as these should be unaffected by peptide-HLA-E complexes (Supplemental Fig. 12).
(§2) Fig. 4 NK cell stimulation assays. Assessment of effects of peptides on NK cell activity through incubation of NK cells, peptides, and (A) K562/HLA-E or (B) RMA-S/HLA-E target cells. […] Replicates for individual peptides are from different donors, with solid black lines indicating mean values. […] Representative gating for NKG2A^+/NKG2C^- and NKG2A^-/NKG2C^+ NK cells is shown in Supplemental Fig. 14. Source data are provided as a Source Data file.
(§3) All analyses of human data were carried out in compliance with the relevant ethical regulations. Healthy blood donors gave informed consent at DRK Blutspendedienst Nord-Ost, Dresden, Germany, and buffy coats were obtained as approved by Charité ethics committee (EA4/059/17). PBMCs were isolated from human CMV-seropositive buffy coats by density centrifugation over Ficoll Paque Plus (GE Healthcare) and screened for the presence of NKG2C^+ NK cell expansions by flow cytometry to have sufficient frequencies of single-positive cells for parallel assessment of activation and inhibition via HLA-E[47]. Total NK cells from donors with NKG2C^+ expansions (>10% NKG2A^-/NKG2C^+ NK cells) were enriched with CD56 microbeads (Miltenyi Biotec) and cryopreserved in FBS with 10% v/v DMSO. After thawing, NK cells were washed with complete medium, stained with antibodies and Fixable Viability Dye eFluor 780 (Thermo Fisher) for 15 min at 4 °C in PBS, sorted as viable CD56^+ CD3^− cells, and rested in complete media overnight. […] Brefeldin A and Monensin (BD Biosciences) were added after a 1 h culture period. After an additional 5 h, the stimulation was stopped by centrifugation at 4 °C. Cells underwent surface staining, followed by fixation and intracellular staining using Inside Stain Kit (Miltenyi Biotec). Samples were analyzed by flow cytometry on an LSR Fortessa (BD Biosciences). Inhibition of NKG2A^+ NK cells and activation of NKG2C^+ NK cells was assessed by gating on the respective single-positive populations (Supplemental Fig. 14). Antibodies are listed in Supplemental Table 1: anti-human CD56 PE/Dazzle 594 (1:200 dilution), CD3 APC-eFluor 780 (1:50 dilution), anti-human CD159a (NKG2A) Biotin REAfinity (1:50 dilution), anti-human CD159c (NKG2C) PE REAfinity (1:100 dilution), anti-human CD107a (LAMP-1) Alexa Fluor 488 (1:400 dilution), anti-human IFN-γ PE-Vio 770 REAfinity (1:50 dilution), anti-human TNF-α Brilliant Violet 605 (1:50 dilution), anti-human CCL3 (MIP-1α) REAfinity (1:25 dilution).

NKG2A-/NKG2C+ NK cells = assay: NK cell activation assay with peptide-pulsed K562/HLA-E cells, NKG2A-/NKG2C+ NK cells; assay type: cell-based, human; settings: K562/HLA-E target cells, 300 µM peptide ([…] µM BFAR263-271), E:T 2:1, 6 h; degranulation (CD107a), IFN-γ, TNF, CCL3; flow cytometry
Experimental: as §1, §2, §3

NKG2C+ NK cells = assay: NK cell activation assay with peptide-pulsed RMA-S/HLA-E cells; assay type: cell-based, human
Experimental: as §2
In contrast to K562 cell lines which are targets for human NK cells, RMA-S cells (a TAP-deficient mouse cell line)[48] are inert to human NK cells and thus will not activate NK cells absent engagement of an activating receptor on the NK cells. […] We performed additional NK cell activation assays with RMA-S/HLA-E cells (Fig. 4B).
as §3

HLA-E [1] = assay: HLA-E surface stabilization assay with RMA-S/HLA-E cells; assay type: cell-based, human; settings: peptide 3-300 µM (Fig. 3: 30 µM) in OptiMEM, 16 h, 37 °C, anti-HLA-E 3D12, flow cytometry, n = 4 replicate experiments
Experimental: To probe top-predicted proteome-derived peptides (Tables 2 and 3) for HLA-E binding, we assessed their ability to stabilize surface-expressed HLA-E on RMA-S/HLA-E cells, a TAP-deficient mouse cell line engineered to express HLA-E and human β2M (Fig. 3 and Supplemental Fig. 8)[47].
Fig. 3 Peptide stabilization of HLA-E surface expression. Assessment of peptide-HLA-E binding via HLA-E surface stabilization assay with RMA-S/HLA-E cells incubated with 30 μM peptide. HLA-E expression is detected with an anti-HLA-E antibody. Measurements from n = 4 replicate experiments are shown, with solid black lines indicating mean values. […] Source data are provided as a Source Data file.
RMA-S/HLA-E cells were incubated with serial dilutions of peptides (3–300 µM, Genscript) in OptiMEM (ThermoFisher) for 16 h at 37 °C. Cells were washed with PBS, stained for HLA-E (Clone 3D12, Biolegend, 1:200 dilution) for 15 min at room temperature and analyzed by flow cytometry (analysis in FlowJo version 10). Peptide UBAC2_275-279 was ordered as a 5mer peptide (WNRLF) given the similarity with other WN peptides and hypothesis of a truncated peptide binding in the HLA-E groove. […] Measurements from replicate experiments are plotted in Fig. 3 and Supplemental Fig. 8.

HLA-E [2] = assay: Prometheus differential scanning fluorimetry of HLA-E with peptide; assay type: binding, human; settings: refolded HLA-E*01:03/β2M 9 μg, 50x peptide to MHC ratio, high sensitivity capillary, 1 °C per minute 20-95 °C, first inflection point; DMSO control 33.8
Experimental: Differential scanning fluorimetry (DSF) experiments were performed with a Prometheus NanoTemper NT.48 (Munich, Germany) to measure protein stability, using intrinsic tryptophan fluorescence.
For these experiments, refolded empty HLA-E was generated. Human β2M plus a poly-histidine tag and HLA-E*01:03 extracellular α1, α2, and α3 domains plus an AviTag biotinylation tag were separately codon optimized for E. coli and cloned into the bacterial expression vector pET28a. Inclusion bodies for HLA-E and β2M were made in BL21 E. coli. Inclusion bodies were purified, homogenized, and dissolved, including denaturation in 8 M urea solution. Before refolding, each IB was mixed with an equal volume of Gdn-Cl solution (6 M Guanidine HCl, 500 mM Tris, 2 mM EDTA, 100 mM NaCl) and incubated overnight at 37 °C. β2M was injected dropwise with a 27-gauge needle into refolding buffer (100 mM pH 8.3 Tris, 400 mM L-arginine hydrochloride, 2 mM EDTA, 0.5 mM oxidized glutathione, 5 mM reduced glutathione, 0.2 mM PMSF) and incubated, stirring gently, at 4 °C for 1 h, after which an equal mass of HLA-E heavy chain was similarly injected. This solution incubated at 4 °C overnight, followed by two days of dialysis in 10 mM Tris + 50 mM NaCl. Protein was concentrated in 10 kDa molecular weight cutoff centrifugal concentrators and purified by size exclusion chromatography on an AKTAPURE FPLC (GE Healthcare, Chicago IL), using an S200 column followed by a S75 column.
Individual DSF reactions were set up with 9 μg of MHC and 100×, 50×, or 10× peptide to MHC ratio by molarity (peptides from GenScript). The final reaction volume was 20 μL and reaction mixtures were incubated at room temperature for 20–30 min.
Prometheus excitation power was set such that raw fluorescence counts were between 8000–15000 for each sample. Samples were heated at 1 °C per minute, from 20–95 °C. DSF measurements were taken in duplicate with high-sensitivity and standard capillaries. Melting temperatures were similar for a given peptide across conditions, and representative data from 50x ratio in high sensitivity capillary are presented. A secondary inflection point around 60 °C in most melts is consistent with melting of β2M[76]. […]
Supplemental Figure 9. Differential scanning fluorimetry data generated via Prometheus NanoTemper for predicted peptides with HLA-E. a) Raw 350/330 nm ratios and first derivative for samples. The second inflection point is consistent with β2M unfolding. b) Summary of Tm values for the first inflection point called by Prometheus software for these samples. […]

CD94/NKG2A = molecular target: T1, CD94/NKG2A (Homo sapiens, UniProt P26715+Q13241); assay: Steady-state SPR of peptide-HLA-E single chain trimers with CD94/NKG2A; assay type: binding; settings: SPR with CD94/NKG2A and CD94/NKG2C, Fig. 5B; taken as lower stability of the peptide-HLA-E complex
T1 construct: The C-terminus of human NKG2A or NKG2C ectodomain was connected via a GGSGGS linker to human CD94 ectodomain; AviTag biotinylation tag (C); poly-histidine tag (C); made in house; host or cells: baculovirus, High Five (Hi5) insect cells
T1 sequence (Q13241 whole entry, looked up, the tested form may be a part): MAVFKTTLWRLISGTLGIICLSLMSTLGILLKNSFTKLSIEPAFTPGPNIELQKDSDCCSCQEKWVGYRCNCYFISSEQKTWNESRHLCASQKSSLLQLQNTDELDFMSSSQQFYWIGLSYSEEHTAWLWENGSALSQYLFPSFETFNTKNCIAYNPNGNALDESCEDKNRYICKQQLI
T1 sequence (P26715 whole entry, looked up, the tested form may be a part): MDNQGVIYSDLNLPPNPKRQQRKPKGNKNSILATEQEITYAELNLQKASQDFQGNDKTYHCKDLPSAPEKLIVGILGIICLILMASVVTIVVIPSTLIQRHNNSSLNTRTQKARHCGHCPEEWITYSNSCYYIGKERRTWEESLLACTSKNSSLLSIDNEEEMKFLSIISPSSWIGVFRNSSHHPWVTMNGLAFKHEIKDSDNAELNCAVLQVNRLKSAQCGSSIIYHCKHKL
Experimental: Specifically, we measured CD94/NKG2A and CD94/NKG2C affinity for HLA-E complexed with three sets of peptides. […] Third, we included […] peptide as a positive control.
Steady-state surface plasmon resonance experiments were performed with a Biacore T200 instrument. CD94/NKG2x in HBS-EP+ buffer was injected as analyte in a concentration range of 0.1 μM to 102.4 μM and flow rate of 10 μL/min at 25 °C. Data was fit with Prism 9.4 (GraphPad Software Inc; San Diego CA) to a “one site, specific binding” model. Sensorgrams are included in Supplemental Fig. 13.
For investigating WN peptides, biotinylated pMHC was immobilized at approximately 400 Response Units (RU) on a Series S SA sensor chip (Cytiva). […] CD94/NKG2A was injected followed by CD94/NKG2C.
For investigating human-derived peptides, Series S CM5 chips (Cytiva) were coupled to neutravidin and utilized. Biotinylated pMHC was immobilized at approximately 400 RU. On one chip, […] CD94/NKG2A was injected followed by CD94/NKG2C. On a second chip, PISD55-63 HLA-E SCT, AKAP6_388-396 HLA-E SCT, GTF3C5_293-301 HLA-E SCT, and reference HLA-DR401 were immobilized. CD94/NKG2C was injected followed by CD94/NKG2A. Rmax, fit values were calculated by Biacore software. Rmax, theoretical values were calculated using the analyte/ligand mass ratio (0.66) multiplied by the amount of ligand coupled to the chip.

Sequence	inhibitory effects on NKG2A+ cells (NKG2A+/NKG2C- NK cells)	activating effects on NKG2C+ cells (NKG2A-/NKG2C+ NK cells)	NKG2C-mediated NK cell activation (NKG2C+ NK cells)	stabilization of HLA-E surface expression (HLA-E [1])	Tm (HLA-E [2])	maximal response units (Rmax) compared to theoretical maximum (CD94/NKG2A)	average percent CD107a+ (NKG2C+ NK cells; NKG2C+ NK cells with RMA-S/HLA-E cells, Fig. 4B, stated in author rebuttal)
QMPSRSLLF [CREB3L1_419-427]	more moderate inhibitory effects	strong activating effects	activation similar to the weaker positive control ([…]) or between the two positive controls	strong binding that is weaker than VMAPRTLFL; also recorded: strong stabilization	46.2 °C		
TGPWRSLWI [GTF3C5_293-301, human peptide from General transcription factor 3C polypeptide 5]	minimal inhibitory effects	clear activating effects	detectable activation, though below both positive control examples	weak but detectable stabilization		lower maximal values compared to the theoretical maximum	11.1%
VLPHRTQFL [UL120_72-80, Merlin, CMV peptide from Membrane protein UL120, strain Merlin]	strong inhibitory effects	strong activating effects	activation similar to the weaker positive control ([…]) or between the two positive controls	strong binding that is weaker than VMAPRTLFL; also recorded: strong HLA-E binding	45.7 °C		
VMPPRTLLL [HLA-A3-11, human peptide from HLA class I histocompatibility antigen]	strong inhibitory effects	strong activating effects	activation similar to the weaker positive control ([…]) or between the two positive controls	HLA-E stabilization matching VMAPRTLFL peptide; also recorded: strong stabilization			
